From patent US20200339953A1, “HEMATOPOIETIC STEM AND PROGENITOR CELL THERAPY” (priority 2010, published 2020)

Key:
CD34^+ cells = assay: Competitive cAMP assay (LANCE cAMP detection kit); assay type: cell-based, human
Experimental: The cAMP assay was performed on CD34^+ cells using the LANCE® cAMP detection kit (Perkin Elmer Inc., Waltham, Mass.) according to the manufacturer's instructions. Briefly, 3,000 CD34^+ cells (Stem Cell Technologies, Vancouver, Canada) were aliquoted in each well of a 384-well opaque white plate in the recommended stimulation buffer. Assays were performed in triplicate for all conditions.
CD34^+ cells were placed on ice prior to being stimulated with DMSO or 16,16-dimethyl PGE2 at 4° C. For assays conducted at other temperatures, e.g., 25° C. or 37° C., DMSO or 16,16-dimethyl PGE2 was added to CD34^+ cells at room temperature and then the plates were incubated with DMSO or 16,16-dmPGE2 at the experimental temperature (25° C. or 37° C.).
CD34^+ cells were incubated for periods of 5, 15, 30, 60 or 120 minutes. Following the incubation period, detection buffer was added to the stimulated cells and cells were incubated for an additional 1 hour at room temperature in detection buffer, regardless of stimulation temperature. The assay plates were analyzed using an EnVision® 2104 Multilabel Reader (Perkin Elmer) according to the manufacturer's instructions.
A competitive cAMP assay was performed using CD34^+ cells to determine the effects of time (incubation for 15, 30, 60, or 120 minutes), temperature (incubation at 4° C., 25° C., or 37° C.), and final 16,16-dimethyl PGE2 concentration (1 μM, 10 μM, 50 μM, or 100 μM) on cAMP production in the cells.

[1] = tested on: Whole cord blood cells or CD34^+ cells; assay: Colony Forming Unit-Cell assay (CFU-C); assay type: cell-based, human
Experimental: Colony Forming Unit-Cell assays (CFU-C) were performed using a methyl cellulose assay kit, MethoCult® GF H4034 (Stem Cell Technologies, Vancouver, CA). Whole cord blood cells or CD34^+ cells obtained from Stem Cell Technologies (Vancouver, Canada) were aliquoted equally in Eppendorf tubes and treated ex vivo at a range of 16,16-dimethyl PGE2 concentrations (10 μM to 100 μM) or DMSO control; temperatures (4° C., 22° C., or 37° C.) for 120 minutes in LMD/5% HSA media. After treatment, the cells were washed in LMD/5% HSA media and resuspended in Iscove's Media containing 2% Fetal Bovine Serum (FBS) (Stem Cell Technologies). Cells were then loaded into a MethoCult® assay tube, mixed, and plated in 35 mm tissue culture plates according to the manufacturer's instructions. Unless otherwise mentioned, the equivalent of 10,000 WCB cells and 250 CD34^+ cells were loaded into each plate.

[2] = tested on: Murine whole bone marrow (WBM) cells; assay: Colony forming Unit Spleen at day 12 (CFU-S12) assay; assay type: in vivo, C57Bl/6 mice; details: 10 μM; for CFU-S12 number: WBM
Experimental: Colony forming Unit Spleen at day 12 (CFU-S12) assays were performed as described in North et al., Nature. 2007 Jun. 21; 447(7147):1007-11. […] After treatment, the cells were washed by centrifugation and resuspended in PBS for tail-vein injection into C57Bl/6 recipients (2×5/treatment) that had been previously lethally irradiated at 10.5Gy. 50,000 cells were injected per recipient. […]

[3] = tested on: Human umbilical cord blood cells; Lin(−)CD34^+ cells isolated after treatment; assay: Gene expression arrays after treatment of whole cord blood; assay type: cell-based
Experimental: Further experiments were performed to determine if CD34^+ cells responded to 16,16-dimethyl PGE2 when cells were treated in the context of a whole cord blood clinical treatment protocol. Human umbilical cord blood cells were incubated for 120 minutes at 37° C. with vehicle or 10 μM 16,16-dimethyl PGE2 (See FIGS. 17A-17D). After the incubation, Lin(−) CD34^+ cells were isolated using Miltenyi magnetic sorting. Biotin-labeled aRNA was prepared from the cells, and gene expression profiles were analyzed. […]
These experiments were repeated using human whole cord blood cells to determine if the CD34^+ expression results can be translated to the clinical setting. […] After the incubation, Lin(−)CD34^+ cells were isolated, labeled aRNA was prepared from the cells, and gene expression profiles were analyzed. […]
After treatment, the cells were washed with LMD/5% HSA medium, centrifuged for 10 minutes at 650× g at room temperature and resuspended in a cold selection buffer (phosphate buffered saline (PBS) with no Ca^+ or Mg^+; 2 mM EDTA; and 0.5% HSA). […] Once the Lin-CD34^+ cells were isolated from the treated whole cord blood, an aliquot was analyzed by flow cytometry to assess purity. […]

CCCCC(C)(C)[C@H](O)/C=C/[C@H]1[C@H](O)CC(=O)[C@@H]1C/C=C\CCCC(=O)O [16,16-dimethyl PGE2]
cAMP production compared to DMSO controls (CD34^+ cells; 4° C., 1, 10, 50 and 100 μM, p>0.05): No statistically significant increase | time in which the cAMP response reached maximal levels (CD34^+ cells; 37° C.): 15 min | cAMP activity compared to DMSO control (CD34^+ cells; 37° C. and 25° C., 5 min up to 2 hours, 1, 10, 50 and 100 μM, p<0.001): statistically significant increase | threshold concentration above which the cAMP response was relatively dose-insensitive (CD34^+ cells; CD34+ cells): 10 µM | incubation time of maximal cAMP response (CD34^+ cells; CD34+ cells, FIG. 3): 30 to 60 min | CFU-C colony formation (FIG. 19D) ([1]; CD34+ cells treated at 37° C. vs DMSO or 4° C.): increase in CFU-C colony formation | ability to form colony forming units (FIG. 11) ([1]; CD34+ cells, 10 μM, 120 minutes, 37° C. vs vehicle or 4° C.): does not decrease the ability of the cells to form colony forming units | proliferative potential (CFU-C) ([1]; whole cord blood cells or CD34+ cells, high temperatures, relatively long incubation periods vs other conditions): higher proliferative potential | number of hematopoietic progenitor cells (FIG. 19A) ([2]; 37° C. incubation): increases the number of hematopoietic progenitor cells | CFU-S12 number ([2]; 4° C. for 1 hour): 8.5±1.3 colonies | CFU-S12 number ([2]; 37° C. for 1 hour): 11.2±1.5 | CFU-S number compared to DMSO treated cells ([2]; murine bone marrow, 4° C. treatment): small increase in CFU-S number | response of whole cord blood (more than 99% Lineage+ cells) ([3]; 10 μM, 37° C., 2 hours, FIGS. 17A-17D): did not respond to 16,16-dimethyl PGE2 in a similar manner | concentration giving the maximal gene expression signature ([3]; whole cord blood treated 120 minutes at 37° C., Lin(−)CD34+ cells isolated): 10 µM
